Where a SMILES comes first, the peptide text is derived from it. Bridges are numbered along the chain shown (N, C = ends). Roman numbers before positions name the chains, in order. [ ]: non-standard residue; d: D form. ξ: configuration not given here. 1Nal = N[C@@H](Cc1cccc2ccccc12)C(=O)O; ξK = NCCCCC(N)C(=O)O; Ava = NCCCCC(=O)O
Target: T1, EPOR (erythropoietin receptor), human recombinant, NSO cells (Homo sapiens, UniProt P19235)
T1 construct: host or cells: NSO cells
T1 sequence (P19235 25-250 limits assumed): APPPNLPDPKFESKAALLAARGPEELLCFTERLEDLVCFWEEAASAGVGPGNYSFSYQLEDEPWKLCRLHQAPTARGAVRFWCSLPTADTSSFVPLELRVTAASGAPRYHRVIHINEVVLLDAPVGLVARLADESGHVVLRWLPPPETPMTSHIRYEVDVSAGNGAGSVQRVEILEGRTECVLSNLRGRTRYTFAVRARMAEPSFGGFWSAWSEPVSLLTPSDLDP
Assay: EPOR radioligand binding assay ([125I] Erythropoietin competition)
Procedure: IC50 values were determined by a non-linear, least squares regression analysis using MATHIQ™ (computer software for integrating mathematical functions into new or existing software). […] Where presented, the Hill coefficient (nH), defining the slope of the competitive binding curve, was calculated using MATHIQ™.

[1] = Example 1, mimetics varied in N-end, loop and mid sequences

Ki [1] [nM]	IC50 (Example 4, first table) [nM]	IC50 (Example 4, fourth table) [nM]	SMILES	other results
48			CC[C@H](C)[C@@H]1NC(=O)[C@@H]2CCCN2C(=O)CNC(=O)[C@H](CCSC)NC(=O)[C@H](CCCNC(=N)N)NC(=O)[C@@H](NC(=O)[C@H](CC(C)C)NC(=O)[C@H](Cc2ccc(O)cc2)NC(=O)[C@H](CC(N)=O)NC(C)=O)CSSC[C@@H](C(=O)N[C@@H](CCCCN)C(=O)N2CCC[C@H]2C(=O)NCCCCC(=O)NCCCCC(NC(=O)[C@@H]2CCCN2C(=O)[C@H](CCCCN)NC(=O)[C@@H]2CSSC[C@H](NC(=O)[C@H](CC(C)C)NC(=O)[C@H](Cc3ccc(O)cc3)NC(=O)[C@H](CC(N)=O)NC(C)=O)C(=O)N[C@@H](CCCNC(=N)N)C(=O)N[C@@H](CCSC)C(=O)NCC(=O)N3CCC[C@H]3C(=O)N[C@@H]([C@@H](C)CC)C(=O)N[C@@H]([C@@H](C)O)C(=O)N[C@@H](Cc3c[nH]c4ccccc34)C(=O)N[C@@H](C(C)C)C(=O)N2)C(N)=O)NC(=O)[C@H](C(C)C)NC(=O)[C@H](Cc2c[nH]c3ccccc23)NC(=O)[C@H]([C@@H](C)O)NC1=O (stereo partly drawn) [AC-0005-003] (I: Ac-NYLCRMGPITWVCKP[ξK]-NH2 / II: Ac-NYLCRMGPITWVCKP[Ava]; disulfide I:4-I:13, II:4-II:13; amide I:16-II:C)	
	> 10000		CC[C@H](C)[C@@H]1NC(=O)[C@@H]2CCCN2C(=O)CNC(=O)[C@H](CCSC)NC(=O)[C@H](Cc2c[nH]cn2)NC(=O)[C@@H](NC(=O)[C@H](C)NC(=O)[C@H](Cc2ccc(O)cc2)NC(=O)[C@H](CC(C)C)NC(C)=O)CSSC[C@@H](C(=O)N[C@@H](CCC(N)=O)C(=O)NCCCCC(=O)NCCCCC(NC(=O)[C@H](CCC(N)=O)NC(=O)[C@@H]2CSSC[C@H](NC(=O)[C@H](C)NC(=O)[C@H](Cc3ccc(O)cc3)NC(=O)[C@H](CC(C)C)NC(C)=O)C(=O)N[C@@H](Cc3c[nH]cn3)C(=O)N[C@@H](CCSC)C(=O)NCC(=O)N3CCC[C@H]3C(=O)N[C@@H]([C@@H](C)CC)C(=O)N[C@@H]([C@@H](C)O)C(=O)N[C@@H](Cc3cccc4ccccc34)C(=O)N[C@@H](C(C)C)C(=O)N2)C(N)=O)NC(=O)[C@H](C(C)C)NC(=O)[C@H](Cc2cccc3ccccc23)NC(=O)[C@H]([C@@H](C)O)NC1=O (stereo partly drawn) [AC-0005-005] (I: Ac-LYACHMGPIT[1Nal]VCQ[ξK]-NH2 / II: Ac-LYACHMGPIT[1Nal]VCQ[Ava]; disulfide I:4-I:13, II:4-II:13; amide I:15-II:C)	
	> 10000		CC[C@H](C)[C@@H]1NC(=O)[C@@H]2CCCN2C(=O)CNC(=O)[C@H](CCSC)NC(=O)[C@H](Cc2c[nH]cn2)NC(=O)[C@@H](NC(=O)[C@H](C)NC(=O)[C@H](Cc2ccc(O)cc2)NC(=O)[C@H](CC(C)C)NC(C)=O)CSSC[C@@H](C(=O)NCCCCC(=O)NCCCCC(NC(=O)[C@@H]2CSSC[C@H](NC(=O)[C@H](C)NC(=O)[C@H](Cc3ccc(O)cc3)NC(=O)[C@H](CC(C)C)NC(C)=O)C(=O)N[C@@H](Cc3c[nH]cn3)C(=O)N[C@@H](CCSC)C(=O)NCC(=O)N3CCC[C@H]3C(=O)N[C@@H]([C@@H](C)CC)C(=O)N[C@@H]([C@@H](C)O)C(=O)N[C@@H](Cc3cccc4ccccc34)C(=O)N[C@@H](C(C)C)C(=O)N2)C(N)=O)NC(=O)[C@H](C(C)C)NC(=O)[C@H](Cc2cccc3ccccc23)NC(=O)[C@H]([C@@H](C)O)NC1=O (stereo partly drawn) [AC-0005-006] (I: Ac-LYACHMGPIT[1Nal]VC[ξK]-NH2 / II: Ac-LYACHMGPIT[1Nal]VC[Ava]; disulfide I:4-I:13, II:4-II:13; amide I:14-II:C)	
	4950		CC[C@H](C)[C@@H]1NC(=O)[C@@H]2CCCN2C(=O)CNC(=O)[C@H](CCSC)NC(=O)[C@H](Cc2c[nH]cn2)NC(=O)C(NC(=O)[C@H](C)NC(=O)[C@H](Cc2ccc(O)cc2)NC(=O)[C@H](CC(C)C)NC(C)=O)CCOCC(C(=O)N[C@@H](CCC(N)=O)C(=O)N2CCC[C@H]2C(=O)NCCCCC(=O)NCCCCC(NC(=O)[C@@H]2CCCN2C(=O)[C@H](CCC(N)=O)NC(=O)C2COCCC(NC(=O)[C@H](C)NC(=O)[C@H](Cc3ccc(O)cc3)NC(=O)[C@H](CC(C)C)NC(C)=O)C(=O)N[C@@H](Cc3c[nH]cn3)C(=O)N[C@@H](CCSC)C(=O)NCC(=O)N3CCC[C@H]3C(=O)N[C@@H]([C@@H](C)CC)C(=O)N[C@@H]([C@@H](C)O)C(=O)N[C@@H](Cc3cccc4ccccc34)C(=O)N[C@@H](C(C)C)C(=O)N2)C(N)=O)NC(=O)[C@H](C(C)C)NC(=O)[C@H](Cc2cccc3ccccc23)NC(=O)[C@H]([C@@H](C)O)NC1=O (stereo partly drawn) [AC-0005-007]	Ki (Example 4, first table): 2350 nM
	> 10000		CC[C@H](C)[C@@H]1NC(=O)[C@@H]2CCCN2C(=O)CNC(=O)[C@H](CCSC)NC(=O)[C@H](CCCNC(=N)N)NC(=O)C(NC(=O)[C@H](C)NC(=O)[C@H](Cc2ccc(O)cc2)NC(=O)[C@H](CC(C)C)NC(C)=O)CCOCC(C(=O)NCCCCC(=O)NCCCCC(NC(=O)C2COCCC(NC(=O)[C@H](C)NC(=O)[C@H](Cc3ccc(O)cc3)NC(=O)[C@H](CC(C)C)NC(C)=O)C(=O)N[C@@H](CCCNC(=N)N)C(=O)N[C@@H](CCSC)C(=O)NCC(=O)N3CCC[C@H]3C(=O)N[C@@H]([C@@H](C)CC)C(=O)N[C@@H]([C@@H](C)O)C(=O)N[C@@H](Cc3cccc4ccccc34)C(=O)N[C@@H](C(C)C)C(=O)N2)C(N)=O)NC(=O)[C@H](C(C)C)NC(=O)[C@H](Cc2cccc3ccccc23)NC(=O)[C@H]([C@@H](C)O)NC1=O (stereo partly drawn) [AC-0005-008]	
22		70	CSCC[C@@H]1NC(=O)[C@H](CCCNC(=N)N)NC(=O)C(NC(=O)[C@H](CC(C)C)NC(=O)[C@H](Cc2ccc(O)cc2)NC(=O)[C@H](CC(N)=O)NC(C)=O)CCOCC(C(=O)N[C@@H](CCCCN)C(=O)N2CCC[C@H]2C(=O)NCCCCC(=O)NCCCCC(NC(=O)[C@@H]2CCCN2C(=O)[C@H](CCCCN)NC(=O)C2COCCC(NC(=O)[C@H](CC(C)C)NC(=O)[C@H](Cc3ccc(O)cc3)NC(=O)[C@H](CC(N)=O)NC(C)=O)C(=O)N[C@@H](CCCNC(=N)N)C(=O)N[C@@H](CCSC)C(=O)NCC(=O)N[C@@H](Cc3c[nH]c4ccccc34)C(=O)N[C@@H](C(C)C)C(=O)N2)C(N)=O)NC(=O)[C@H](C(C)C)NC(=O)[C@H](Cc2c[nH]c3ccccc23)NC(=O)CNC1=O (stereo partly drawn) [AC-0005-018]	Ki (Example 4, fourth table): 33 nM; IC50 (Example 4, second table): 47 nM
27			CSCC[C@@H]1NC(=O)[C@H](CCCNC(=N)N)NC(=O)C(NC(=O)[C@H](CC(C)C)NC(=O)[C@H](Cc2ccc(O)cc2)NC(=O)[C@H](CC(N)=O)NC(C)=O)CCOCC(C(=O)N[C@@H](CCCCN)C(=O)N2CCC[C@H]2C(=O)NCCCCC(=O)NCCCCC(NC(=O)[C@@H]2CCCN2C(=O)[C@H](CCCCN)NC(=O)C2COCCC(NC(=O)[C@H](CC(C)C)NC(=O)[C@H](Cc3ccc(O)cc3)NC(=O)[C@H](CC(N)=O)NC(C)=O)C(=O)N[C@@H](CCCNC(=N)N)C(=O)N[C@@H](CCSC)C(=O)NCCC(=O)N[C@@H](Cc3c[nH]c4ccccc34)C(=O)N[C@@H](C(C)C)C(=O)N2)C(N)=O)NC(=O)[C@H](C(C)C)NC(=O)[C@H](Cc2c[nH]c3ccccc23)NC(=O)CCNC1=O (stereo partly drawn) [AC-0005-019]	IC50 (Example 4, second table): 57 nM
44		93	CSCC[C@@H]1NC(=O)[C@H](CCCNC(=N)N)NC(=O)C(NC(=O)[C@H](CC(C)C)NC(=O)[C@H](Cc2ccc(O)cc2)NC(=O)[C@H](CC(N)=O)NC(C)=O)CCOCC(C(=O)N[C@@H](CCCNC(=N)N)C(=O)N2CCC[C@H]2C(=O)NCCCCC(=O)NCCCCC(NC(=O)[C@@H]2CCCN2C(=O)[C@H](CCCNC(=N)N)NC(=O)C2COCCC(NC(=O)[C@H](CC(C)C)NC(=O)[C@H](Cc3ccc(O)cc3)NC(=O)[C@H](CC(N)=O)NC(C)=O)C(=O)N[C@@H](CCCNC(=N)N)C(=O)N[C@@H](CCSC)C(=O)NCC(=O)N[C@@H](Cc3c[nH]c4ccccc34)C(=O)N[C@@H](C(C)C)C(=O)N2)C(N)=O)NC(=O)[C@H](C(C)C)NC(=O)[C@H](Cc2c[nH]c3ccccc23)NC(=O)CNC1=O (stereo partly drawn) [AC-0005-020]	
12		25	CSCC[C@@H]1NC(=O)[C@H](CCCNC(=N)N)NC(=O)C(NC(=O)[C@H](CC(C)C)NC(=O)[C@H](Cc2ccc(O)cc2)NC(=O)[C@H](CC(N)=O)NC(C)=O)CCOCC(C(=O)N[C@@H](CCCCNC(=N)N)C(=O)N2CCC[C@H]2C(=O)NCCCCC(=O)NCCCCC(NC(=O)[C@@H]2CCCN2C(=O)[C@H](CCCCNC(=N)N)NC(=O)C2COCCC(NC(=O)[C@H](CC(C)C)NC(=O)[C@H](Cc3ccc(O)cc3)NC(=O)[C@H](CC(N)=O)NC(C)=O)C(=O)N[C@@H](CCCNC(=N)N)C(=O)N[C@@H](CCSC)C(=O)NCC(=O)N[C@@H](Cc3c[nH]c4ccccc34)C(=O)N[C@@H](C(C)C)C(=O)N2)C(N)=O)NC(=O)[C@H](C(C)C)NC(=O)[C@H](Cc2c[nH]c3ccccc23)NC(=O)CNC1=O (stereo partly drawn) [AC-0005-021]	
17		36	CSCC[C@@H]1NC(=O)[C@H](CCCNC(=N)N)NC(=O)C(NC(=O)[C@H](CC(C)C)NC(=O)[C@H](Cc2ccc(O)cc2)NC(=O)[C@H](CC(N)=O)NC(C)=O)CCOCC(C(=O)N[C@@H](CCCCN)C(=O)N2CCC[C@H]2C(=O)NCCCCC(=O)NCCCCC(NC(=O)[C@@H]2CCCN2C(=O)[C@H](CCCCN)NC(=O)C2COCCC(NC(=O)[C@H](CC(C)C)NC(=O)[C@H](Cc3ccc(O)cc3)NC(=O)[C@H](CC(N)=O)NC(C)=O)C(=O)N[C@@H](CCCNC(=N)N)C(=O)N[C@@H](CCSC)C(=O)N[C@@H](Cc3ccccc3)C(=O)N[C@@H](Cc3c[nH]c4ccccc34)C(=O)N[C@@H](C(C)C)C(=O)N2)C(N)=O)NC(=O)[C@H](C(C)C)NC(=O)[C@H](Cc2c[nH]c3ccccc23)NC(=O)[C@H](Cc2ccccc2)NC1=O (stereo partly drawn) [AC-0005-022]	

Source: patent publication US9422338B2 (EpoDose LLC, priority 2011, dated 2016)
